Experimental data from PubChem BioAssay AID179 (DTP/NCI, 2004).
Calls of active or inactive are those of the source.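 The calls were made as follows: active = compounds giving half or more protection of infected cells from virus-caused growth loss, again on retest; inactive = the rest.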 *1 amine or outer side, *2 acyl side, *3 side chain or, on linkers, in order; H or OH if unused. Where a SMILES comes first, the peptide text is derived from it. [ ]: non-standard residue; d: D form. The star is where a group is joined. X3 = CC(=O)N(C)SCC(N[*:1])C(=O)[*:2]; X20 = CC(=O)N(C)SCC(N*)/C(O)=N\O; Cbz = O=C(OCc1ccccc1)*; Bn = c1ccc(C*)cc1; For = O=C*

Tested on: CEM cells HIV-1 protection, formazan growth assay
Assay: NCI AIDS Antiviral Assay
Settings: for IC50: measured here: growth of uninfected CEM cells
Summary of the method: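 Human CEM cells, uninfected and HIV-1-infected, received five drug concentrations, and growth was read by soluble formazan assay. Compounds giving at least 50% protection were retested; reproducible 100% protection defined confirmed active.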

SMILES	EC50 [µM]	IC50 [µM]	outcome
C=C(CN(CC)CC)C1(c2ccccc2)CC2(CCCC2)C(=O)O1 (centres undefined)	> 200	117	–
O=C1C=C(C23CC4CC(CC(C4)C2)C3)N2CCCc3cccc(c32)N1	> 100	> 100	–
CC(C)(CN1CCCCC1)C(=O)/C=C/c1ccc(Cl)c(Cl)c1	> 33.1	3.09	–
Cc1ccc(C(=O)O)cc1S(=O)(=O)Nn1cnc2ccc(S(=O)(=O)Nc3ccccc3C(=O)O)cc2c1=O	> 200	> 200	–
Cc1c(C)n2c(=O)n(-c3ccccc3)c(=O)n2c1=O	> 977	617	–
CN(C)CCCNC(=O)CCNC(=O)c1cc(NC(=O)c2cc(NC(=O)c3cc(NC(=O)CCCNC(=O)c4cc(NC(=O)c5cc(NC(=O)c6nccn6C)cn5C)cn4C)cn3C)cn2C)cn1C	–	–	inactive
COC(=O)N1N=C(c2ccccc2)C1c1ccccc1 (centres undefined)	> 200	38	–
Cc1ccccc1-n1c(=O)nc2n(-c3ccc(C(C)(C)C)cc3)c3ccccc3cc-2c1=O	> 200	14.1	–
CCC1(CC)C(=O)N(C(=O)c2cc(OC)c(OC)c(OC)c2)N(C(=O)c2cc(OC)c(OC)c(OC)c2)C1=O	> 200	10.7	–
O=C(c1ccccc1)c1cc(Cl)ccc1NCn1nnc2ccccc21	> 200	35.5	–
CN1CC[C@]2(C)c3c(O)cccc3CC3CCCC1C32C (some centres undefined)	–	–	inactive
COc1ccc(C2=C/C(=C/c3ccc(O)cc3O)C(=O)O2)cc1	> 200	36.3	–
COc1ccccc1NS(=O)(=O)c1ccc2ncn(NS(=O)(=O)c3ccc(Cl)cc3)c(=O)c2c1	–	–	inactive
COc1ccc2c(c1)CC[C@@H]1C2CC[C@]2(C)C(=C=CP(=O)(O)O)CCC12 (some centres undefined)	> 200	> 200	–
CCOC(=O)c1ccc(CS(=O)c2ccc([N+](=O)[O-])cc2)c([N+](=O)[O-])c1 (centres undefined)	> 69.2	21.4	–
O=c1[nH]c(Nc2cc(Cl)cc(Cl)c2)nc2nc[nH]c12	> 200	> 200	–
O=C(O)c1ccc(SSc2ccc(C(=O)O)cc2)cc1	123	> 200	–
Cc1ccccc1NC(=O)C(=O)CC(=O)c1sc(-n2nc(-c3ccccc3)cc2-c2ccccc2)nc1C	> 479	> 479	–
CC(=O)Nc1ccc(/C=C2/NC(=S)N(/C=C3\C(=O)Oc4ccccc4C3=O)C2=O)cc1	> 200	155	–
CN(C)C(=S)OC(Cn1cncn1)c1ccc(Cl)cc1Cl (centres undefined)	> 513	427	–
COc1cc([N+](=O)[O-])ccc1C(=O)Nc1c2ccccc2nc2ccccc12	> 200	0.479	–
Cc1nn(-c2ccccc2)c(=O)n2c1nc1ccccc12	> 93.3	58.9	–
COc1cc(N=Nc2ccccc2)cc(/C=N/NC(N)=S)c1O	–	–	inactive
CC1=NNC(=S)NCCCN2CCN(CCCNC(=S)NN=C(C)C=NNC(=S)NCCCN3CCN(CCCNC(=S)NN=C1)CC3)CC2	> 123	> 123	–
CC(C)(Oc1ccc2c(=O)cc(-c3ccc(Cl)cc3)oc2c1)C(=O)Nc1c(Cl)cccc1Cl	> 10.2	> 10.2	–
Cc1c(CO)[n+](=O)c2ccccc2n1[O-]	> 200	> 200	–
COc1cccc2c(NCCCN(C)C)c3c([N+](=O)[O-])ccc(OC)c3nc12	> 2	0.257	–
CC(=O)N(C)SCC(NC(=O)C(Cc1ccccc1)NC(=O)OCc1ccccc1)C(=O)NC(Cc1ccccc1)C(=O)NC(Cc1cn(C=O)c2ccccc12)C(=O)NC(CCCCNC(=O)OCc1ccccc1)C(=O)NC(C(=O)NC(CSN(C)C(C)=O)/C(O)=N\O)C(C)OCc1ccccc1 (centres undefined) (Cbz-F[X3]FW(For)K(Cbz)T(Bn)-X20; configuration not given here)	–	–	inactive
C(=C\c1c[nH]c2ccccc12)/c1nccc2ccccc12	0.0631	107	–
COc1cccc(-c2cc(=O)c3cc(C)c(C)c(C(=O)O)c3o2)c1	–	–	inactive
